Values after ≈ are worked out from the molar mass of the structure shown. Read-outs that look alike come from different tables or passages of the source.

Consider nine molecules from patent US5721246A, “Heterobicyclic sulfonamide and sulfonic ester derivatives” (Eisai Co., Ltd., priority 1993, dated 1998).

One assay has as its system colon 38. The assay is classed as in vivo, mouse. The note with it: once a day for 8 days, BDF1 mice, tumor weight on 21st day. The method, then:
In vivo Antitumor Test Against Colon 38 (Mouse Colon Cancer)
About 75 mg of colon 38 was subcutaneously transplanted to the flank of each BDF1 mouse (aged 7 weeks, female). A test compound according to the present invention was suspended in a physiological saline containing 3.5% of dimethyl sulfoxide and 6.5% of Tween 80 and the obtained suspension was intraperitoneally administered to the mice in a predetermined dose once a day for 8 days from the next day of transplantation. On the other hand, only a physiological saline containing 3.5% of dimethyl sulfoxide and 6.5% of Tween 80 was intraperitoneally administered to the mice of the control group. The control group was composed of ten mice, while each treated group was composed of six mice.
On the 21st day after the transplantation, the tumor was extirpated from each mouse to determine its weight. The tumor growth inhibition ratio was determined by the following formula: [formula] T: average weight of tumor of the treated group C: average weight of tumor of the control group

The subject of another assay is colon 38 cells. As to the kind of experiment: In vitro antitumor test against colon 38 cells (MTT). The note with it: 72 h, concentration at which 50% of mouse colon 38 cells are inhibited, 3 days. The assay is classed as cell-based. As to the method:
In vitro Antitumor Test Against Colon 38 Cells (Mouse Colon Cancer Cells)
2.5×10^3 (0.1 ml) of colon 38 cells suspended in RPMI1640 medium (a product of Sanko Junyaku) containing 10% of fetal bovine serum, penicillin (100 units/ml), streptomycin (100 μg/ml), mercaptoethanol (5×10^-5 M) and sodium pyruvate (1 mM) were inoculated in each well of a 96-well flat-bottomed microplate, and cultured in an incubator containing 5% of carbon dioxide at 37° C. for one day.
A test compound according to the present invention was dissolved in dimethyl sulfoxide in a concentration of 20 mg/ml and the resulting solution was diluted with 10% fetal bovine serum/RPMI1640 medium to a concentration of 200 μg/ml. The resulting solution was diluted with 10% fetal bovine serum/RPMI1640 medium to prepare 3-fold serial dilutions with the maximum concentration being 200 μg/ml. The obtained dilutions were each poured into the well of the above-described culture plate in an amount of 0.1 ml. The resulting plate was cultured at 37° C. in an incubator containing 5% of carbon dioxide for 3 days.
Thereafter, a solution of MTT[3-(4,5-dimethylthiazol-2-yl)-2,5-diphenyltetrazolium bromide] (having a concentration of 3.3 mg/ml) was added to each well in an amount of 0.05 ml. The resulting mixtures were further incubated for 2 hours. The supernatant was removed from each well by suction. Formed formazan was dissolved in 0.1 ml of dimethyl sulfoxide. The absorbance at 540 nm was determined with a microplate reader and the absorbance was taken as an index of the number of viable cells. The inhibitory ratio of the test compound was calculated according to the following formula to determine the IC50 of the test compound, with the IC50 referring to the concentration at which 50% of mouse colon 38 cells are inhibited: [formula] T: absorbance of well containing a test compound C: absorbance of well containing no test compound

The next assay has as its system HCT116. As to the kind of experiment: animal or person. The note with it: Mus musculus, HCT-116, ip, 504 h, once a day for 4 days, nude mice, tumor weight on 21st day, read-out: Growth inhibition ratio; for inhibition in vivo at 100 mg/kg: 100 mg/kg/day i.p.; for inhibition in vivo at 50 mg/kg: 50 mg/kg/day i.p. The text has this: In vivo Antitumor Test Against HCT116 (Human Colon Cancer)
HCT116 (5 to 8×10^6) was subcutaneously transplanted to the flank of each nude mouse (BALB/c·nu/nu, aged 7 to 8 weeks, female). A test compound according to the present invention was suspended in a physiological saline containing 3.5% of dimethyl sulfoxide and 6.5% of Tween 80 and the obtained suspension was intraperitoneally administered to the mice treated above once a day in a predetermined dose for 4 days after the time at which the tumor volume had increased to about 100 mm^3, which was about 7 days after the transplantation. On the other hand, only a physiological saline containing 3.5% of dimethyl sulfoxide and 6.5% of Tween 80 was intraperitoneally administered to the mice of the control group. The control group was composed of ten mice, while each treated group was composed of five mice. On the 21st day after the initiation of administration, the tumor was extirpated from each mouse to determine its weight. The tumor growth inhibition ratio was determined by the following formula: [formula] T: average weight of tumor of the treated group C: average weight of tumor of the control group

Turning to `Nc1ccc(S(=O)(=O)Nc2cnc3c(Cl)cccc3n2)cc1` [CQS, 2-sulfanylamido-5-chloroquinoxaline, reference compound], in the assay with colon 38 (200 mg/kg/day i.p.), the Growth inhibition ratio was 53%. In the assay on colon 38 cells, this molecule returned an IC50 of 2 µg/mL (≈ 5.97 µM). In addition, the inhibition in vivo at 200 mg/kg in the assay on HCT116 (200 mg/kg/day i.p.) worked out at 33%.

As to `Nc1ccc(S(=O)(=O)Nc2cccc3c(Cl)c[nH]c23)cc1` [Example 3], the Growth inhibition ratio with colon 38 (50 mg/kg/day i.p.) turned out to be 94%. Moreover, the IC50 in the assay on colon 38 cells turned out to be 0.23 µg/mL (≈ 0.715 µM).

`N#Cc1ccc(S(=O)(=O)Nc2cccc3c(Cl)c[nH]c23)cc1` [Example 10]: in the assay with colon 38 (50 mg/kg/day i.p.), the Growth inhibition ratio is 94%. The same molecule gave an IC50 in the assay with colon 38 cells of 0.13 µg/mL (≈ 0.392 µM).

`N#Cc1c[nH]c2c(NS(=O)(=O)c3cccc(Cl)c3)cccc12` [Example 17]: the Growth inhibition ratio in the assay with colon 38 (50 mg/kg/day i.p.) is recorded as 94%. This molecule registered an IC50 in the assay on colon 38 cells of 0.13 µg/mL (≈ 0.392 µM).

`NC(=O)c1ccc(S(=O)(=O)Nc2cccc3c(Cl)c[nH]c23)cc1` [Example 29]: the Growth inhibition ratio in the assay on colon 38 (50 mg/kg/day i.p.) came out at 97%. In the assay on colon 38 cells, this molecule registered an IC50 of 0.19 µg/mL (≈ 0.543 µM). The inhibition in vivo at 100 mg/kg in the assay on HCT116 was found to be 80%.

Consider `CC(=O)c1ccc(S(=O)(=O)Nc2cccc3c(C#N)c[nH]c23)cc1` [Example 42], for which the Growth inhibition ratio in the assay on colon 38 (50 mg/kg/day i.p.) amounted to 98%. The molecule further displayed an IC50 in the assay on colon 38 cells of 0.25 µg/mL (≈ 0.737 µM).

Regarding `CS(=O)(=O)NCc1ccc(S(=O)(=O)Nc2cccc3c(Cl)c[nH]c23)cc1` [Example 53], the IC50 in the assay with colon 38 cells is 0.12 µg/mL (≈ 0.29 µM). Further, the inhibition in vivo at 50 mg/kg in the assay on HCT116 was 86%.

Regarding `CNC(=O)c1ccc(S(=O)(=O)Nc2cccc3c(Cl)c[nH]c23)cc1` [Example 72], the IC50 in the assay on colon 38 cells was found to be 0.15 µg/mL (≈ 0.412 µM). The inhibition in vivo at 100 mg/kg in the assay on HCT116 came to 87%.

`CS(=O)(=O)Cc1ccc(S(=O)(=O)Nc2cccc3c(Cl)c[nH]c23)cc1` [Example 73] gave a half-inhibitory concentration (IC50) with colon 38 cells of 0.11 µg/mL (≈ 0.276 µM). Further, the inhibition in vivo at 50 mg/kg with HCT116 was 78%.
